The values below are quoted from earlier work in patent US9320791B2, “Peptides from chaperonin 60.1” (PE[…], priority 2011, dated 2016).

This data set concerns recruitment of eosinophils. The conditions noted are these: animal model of allergic airway inflammation; disclosed in WO2009/106819.

With “DGSVVVNKVSELPAGHGLNVNTLSYGDLAAD (listed as Mycobacterium tuberculosis) [Peptide 4, peptide derivable from MtCpn60.1 disclosed in WO2009/106819]”, the recruitment of eosinophils result is on record as “significantly reduce”.
